Reference: PMC12582325 (Proceedings of the National Academy of Sciences of the …, 2025)
Where “and” joins values, the source holds several entries; their conditions need not be identical. Equal entries are not always repeated. Entries after “also recorded” stand apart in the source; their conditions may differ. Where two headings read alike, the source gives them in different places. Where a SMILES comes first, the peptide text is derived from it.

Assays:
Bb.Ste2 [1] = assay type: cell-based, Beauveria bassiana; conditions: YPL1 library cocultured with Bb.Ste2 strain GEN88, 20 h, 2 d diploid enrichment, NextSeq 500
Fo.Ste2 [2] = test: Yeast GPCR biosensor, cognate agonist together with candidate antagonist Cm; assay type: cell-based, Fusarium oxysporum; conditions: Fo + Cm (Fo 0.5 μM, Cm 10 μM); Control mean 6141; mean of n = 4
Fo.Ste2 [3] = assay type: cell-based, Fusarium oxysporum
Fg.Ste2 [4] = assay type: cell-based, Fusarium graminearum; conditions: YPL1 library cocultured with Fg.Ste2 strain GEN87, 20 h, 2 d diploid enrichment, NextSeq 500
Bb.Ste2 [5] = assay type: cell-based, Beauveria bassiana
Bb.Ste2 [6] = assay type: cell-based, Beauveria bassiana; conditions: Bb + Cm (Bb 0.0005 μM, Cm 10 μM); Control mean 6960; mean of n = 4
Fg.Ste2 [7] = assay type: cell-based, Fusarium graminearum; conditions: Fg + Cm (Fg 0.5 μM, Cm 10 μM); Control mean 6548; mean of n = 4
[8] = system: no_GPCR (negative control lacking a GPCR); assay type: cell-based, Saccharomyces cerevisiae; conditions: SC + added peptide, individual replicates (n=3)
Fo.Ste2 [9] = assay type: cell-based, Fusarium oxysporum; remark: listed apart in the source
Fg.Ste2 [10] = system: Fg.Ste2
Fg.Ste2 [11] = assay type: cell-based, Fusarium graminearum; conditions: 10 μM; Control mean 6548; mean of n = 4
Fo.Ste2 [12] = test: YeMaP Library-on-One: YPL1 pheromone library enrichment by mating, NGS; assay type: cell-based, Fusarium oxysporum; conditions: YPL1 library cocultured with Fo.Ste2 strain GEN90, 20 h, 2 d diploid enrichment, NextSeq 500
Bc.Ste2 [13] = assay type: cell-based, Botrytis cinerea; conditions: for Bc.Ste2 (activation): with Bc agonist, normalised
Bc.Ste2 [14] = assay type: cell-based, Botrytis cinerea; conditions: YPL1 library cocultured with Bc.Ste2 strain GEN89, 20 h, 2 d diploid enrichment, NextSeq 500
Bc.Ste2 [15] = assay type: cell-based, Botrytis cinerea
Bc.Ste2 [16] = assay type: cell-based, Botrytis cinerea; conditions: 10 μM
Hj.Hpr2 = assay type: cell-based, Hypocrea jecorina
Bb.Ste2 [17] = assay type: cell-based, Beauveria bassiana; remark: listed apart in the source

## CC(C)C[C@H](NC(=O)[C@H](CS)NC(=O)[C@@H](N)Cc1c[nH]c2ccccc12)C(=O)N[C@@H](CCCNC(=N)N)C(=O)N1CCC[C@H]1C(=O)NCC(=O)N[C@@H](CCC(N)=O)C(=O)N1CCC[C@H]1C(=O)N[C@@H](CS)C(=O)N[C@@H](Cc1c[nH]c2ccccc12)C(=O)O [Cm] (H-WCLRPGQPCW-OH; N-terminus and C-terminus assumed)
Bb.Ste2 [1]
  Enrichment after mating, reads per million minus library before coculture: +7,508 RPM
Fo.Ste2 [2]
  Sup.Fig.3B Fo.Ste2 biosensor response, group mean: 1377500
Fo.Ste2 [3]
  Fold decline in diploids containing Fo.Ste2: 0.2 fold
  Mean 2 (SC + peptide), Fo share of diploids: 0.087
Fo.Ste2 [3]; n = 3
  Mean Diff, SC vs. + peptide: 0.4046
Fg.Ste2 [4]
  Enrichment after mating, reads per million minus library before coculture: consistently lacking
Bb.Ste2 [5]
  Activation of Bb.Ste2 biosensor, in words: triggered the activation
Bb.Ste2 [5]; 10 μM
  Sup.Fig.3B Bb.Ste2 biosensor response, group mean: 1237500
Bb.Ste2 [6]
  Sup.Fig.3B Bb.Ste2 biosensor response, group mean: 1335000
Fg.Ste2 [7]
  Sup.Fig.3B Fg.Ste2 biosensor response, group mean: 219822
[8]; SC alone: 0, 0, 0
  barcode qPCR of diploids, no_GPCR x Fg.Pheromone: 0 and 0.032 and 0.007
  barcode qPCR of diploids, no_GPCR x Hj.Pheromone: 0 (2×) and 0.052
[8]; SC alone: 0, 0, 0.004
  barcode qPCR of diploids, no_GPCR x Bb.Pheromone: 0 (2×) and 0.005
[8]; SC alone: 0, 0, 0.007
  barcode qPCR of diploids, no_GPCR x Fo.Pheromone: 0.005 and 0 (2×)
[8]; SC alone: 0.001, 0.001, 0
  barcode qPCR of diploids, no_GPCR x no_Pheromone: 0.027 and 0.026 and 0.002
Fo.Ste2 [9]
  Activation of Fo.Ste2 biosensor, in words: triggered the activation; also recorded: agonists for Fo.Ste2
  Hillslope: 1.276
  logEC50: -6.973
Fo.Ste2 [9]; 10 μM
  Sup.Fig.3B Fo.Ste2 biosensor response, group mean: 1362500
Fg.Ste2 [10]; SC + added peptide, individual replicates (n=3), SC alone: 0.003, 0.004, 0.001
  barcode qPCR of diploids, Fg.Ste2 x Hj.Pheromone: 0.028 and 0.017 and 0.029
Fg.Ste2 [10]; SC + added peptide, individual replicates (n=3), SC alone: 0.005, 0.005, 0.013
  barcode qPCR of diploids, Fg.Ste2 x Fo.Pheromone: 0.014 and 0.066 and 0.033
Fg.Ste2 [10]; SC + added peptide, individual replicates (n=3), SC alone: 0.012, 0.001, 0.003
  barcode qPCR of diploids, Fg.Ste2 x no_Pheromone: 0 and 0.143 and 0.133
Fg.Ste2 [10]; SC + added peptide, individual replicates (n=3), SC alone: 0.012, 0.009, 0.006
  barcode qPCR of diploids, Fg.Ste2 x Bb.Pheromone: 0.032 and 0.042 and 0.028
Fg.Ste2 [10]; SC + added peptide, individual replicates (n=3), SC alone: 0.206, 0.237, 0.235
  barcode qPCR of diploids, Fg.Ste2 x Fg.Pheromone: 0.441 and 0.282 and 0.373
Fg.Ste2 [10]; consortium in SC media, 10 μM external peptide, three biological replicates
  Fold increase in diploids containing Fg.Ste2: 2.2 fold
Fg.Ste2 [11]
  Sup.Fig.3B Fg.Ste2 biosensor response, group mean: 14826
Fo.Ste2 [12]
  Enrichment after mating, reads per million minus library before coculture: consistently lacking
Bc.Ste2 [13]; 0.0005 μM Bc pheromone in combination with 10 μM peptide, four biological replicates, Fig. 2G
  Effect on activation of Bc.Ste2 by Bc pheromone, in words: completely abolished
Bc.Ste2 [13]; Bc + Cm (Bc 0.0005 μM, Cm 10 μM), Control mean 6719, mean of n = 4
  Sup.Fig.3B Bc.Ste2 biosensor response, group mean: 9961
Bc.Ste2 [13]; Bc + the named peptide, Bc alone mean 134.8, mean of n = 4
  Bc.Ste2 + pheromones, biosensor response, group mean: 1.794
Bc.Ste2 [13]; Bc.Ste2 + Cm (antagonist), four-parameter fit, best-fit value
  Hillslope: -289008
Bc.Ste2 [13]; Bc.Ste2, 0.0005 μM Bc pheromone
  Excess of the antagonist compared to the agonist at IC50: 2,000 fold
Bc.Ste2 [13]; Concentration 1e-6, replicate 1
  Bc.Ste2 (activation): 49.9332
Bc.Ste2 [13]; Concentration 1e-6, replicate 2
  Bc.Ste2 (activation): 46.5053
Bc.Ste2 [13]; Concentration 1e-6, replicate 3
  Bc.Ste2 (activation): 51.6445
Bc.Ste2 [13]; Concentration 1e-6, replicate 4
  Bc.Ste2 (activation): 48.6418
Bc.Ste2 [13]; Concentration 5e-6, replicate 1
  Bc.Ste2 (activation): 5.491
Bc.Ste2 [13]; Concentration 5e-6, replicate 2
  Bc.Ste2 (activation): 4.729
Bc.Ste2 [13]; Concentration 5e-6, replicate 3
  Bc.Ste2 (activation): 4.1657
Bc.Ste2 [13]; Concentration 5e-6, replicate 4
  Bc.Ste2 (activation): 2.595
Bc.Ste2 [13]; Concentration 1e-5, replicate 1
  Bc.Ste2 (activation): 1.904
Bc.Ste2 [13]; Concentration 1e-5, replicate 2
  Bc.Ste2 (activation): 1.546
Bc.Ste2 [13]; Concentration 1e-5, replicate 3
  Bc.Ste2 (activation): 1.924
Bc.Ste2 [13]; Concentration 1e-5, replicate 4
  Bc.Ste2 (activation): 1.801
Bc.Ste2 [13]; Concentration 1.00E-07, replicate 1
  Bc.Ste2 (activation): 86.3218
Bc.Ste2 [13]; Concentration 1.00E-07, replicate 2
  Bc.Ste2 (activation): 95.1098
Bc.Ste2 [13]; Concentration 1.00E-07, replicate 3
  Bc.Ste2 (activation): 89.2984
Bc.Ste2 [13]; Concentration 1.00E-07, replicate 4
  Bc.Ste2 (activation): 97.6612
Bc.Ste2 [13]; Concentration 1.00E-08, replicate 1
  Bc.Ste2 (activation): 96.9525
Bc.Ste2 [13]; Concentration 1.00E-08, replicate 2
  Bc.Ste2 (activation): 96.5273
Bc.Ste2 [13]; Concentration 1.00E-08, replicate 3
  Bc.Ste2 (activation): 99.5039
Bc.Ste2 [13]; Concentration 1.00E-08, replicate 4
  Bc.Ste2 (activation): 98.7952
Bc.Ste2 [13]; Concentration 1.00E-09, replicate 1
  Bc.Ste2 (activation): 101.063
Bc.Ste2 [13]; Concentration 1.00E-09, replicate 2
  Bc.Ste2 (activation): 96.9525
Bc.Ste2 [13]; Concentration 1.00E-09, replicate 3
  Bc.Ste2 (activation): 99.9291
Bc.Ste2 [13]; Concentration 1.00E-09, replicate 4
  Bc.Ste2 (activation): 101.063
Bc.Ste2 [13]; Concentration 5.00E-07, replicate 1
  Bc.Ste2 (activation): 78.8094
Bc.Ste2 [13]; Concentration 5.00E-07, replicate 2
  Bc.Ste2 (activation): 64.2098
Bc.Ste2 [13]; Concentration 5.00E-07, replicate 3
  Bc.Ste2 (activation): 79.0928
Bc.Ste2 [13]; Concentration 5.00E-07, replicate 4
  Bc.Ste2 (activation): 82.7782
Bc.Ste2 [13]; Concentration 5.00E-08, replicate 1
  Bc.Ste2 (activation): 94.4011
Bc.Ste2 [13]; Concentration 5.00E-08, replicate 2
  Bc.Ste2 (activation): 98.7952
Bc.Ste2 [13]; Concentration 5.00E-08, replicate 3
  Bc.Ste2 (activation): 96.9525
Bc.Ste2 [13]; Concentration 5.00E-08, replicate 4
  Bc.Ste2 (activation): 98.7952
Bc.Ste2 [14]
  Enrichment after mating, reads per million minus library before coculture: consistently lacking
Bc.Ste2 [15]
  Reduction in diploid formation: two-fold reduction
Bc.Ste2 [16]
  Sup.Fig.3B Bc.Ste2 biosensor response, group mean: 6819
Hj.Hpr2
  Mean 2 (SC + peptide), Hj share of diploids: 0.004151
  barcode qPCR of diploids, Hj.HPR2 x Bb.Pheromone: 0
  barcode qPCR of diploids, Hj.HPR2 x Fg.Pheromone: 0
  barcode qPCR of diploids, Hj.HPR2 x no_Pheromone: 0
Hj.Hpr2; n = 3
  Mean Diff, SC vs. + peptide: -0.002114
Bb.Ste2 [17]
  Mean 2 (SC + peptide), Bb share of diploids: 0.01767
  barcode qPCR of diploids, Bb.Ste2 x Fo.Pheromone: 0.04 and 0.041 and 0.037
  barcode qPCR of diploids, Bb.Ste2 x no_Pheromone: 0.037 and 0.028 and 0.049
Bb.Ste2 [17]; n = 3
  Mean Diff, SC vs. + peptide: 0.02891
